In US7365084B2, “Cycloalkyl-substituted amino acid derivatives, processes for their preparation and their use as pharmaceuticals” (SanoFi-Aventis Deutschland GmbH, priority 2003, dated 2008):
pEC50: −log10 of the molar value.

Molecular target: T1, human PPARalpha receptor (GR-GAL4-humanPPARalpha-LBD fusion protein) (Homo sapiens, UniProt Q07869)
T1 construct: amino acids S167-Y468; expressed in transfected cells; host or cells: HEK (human embryo kidney) cells, stably transfected with pcDNA3 carrying the fusion construct
T1 sequence (Q07869 167-468): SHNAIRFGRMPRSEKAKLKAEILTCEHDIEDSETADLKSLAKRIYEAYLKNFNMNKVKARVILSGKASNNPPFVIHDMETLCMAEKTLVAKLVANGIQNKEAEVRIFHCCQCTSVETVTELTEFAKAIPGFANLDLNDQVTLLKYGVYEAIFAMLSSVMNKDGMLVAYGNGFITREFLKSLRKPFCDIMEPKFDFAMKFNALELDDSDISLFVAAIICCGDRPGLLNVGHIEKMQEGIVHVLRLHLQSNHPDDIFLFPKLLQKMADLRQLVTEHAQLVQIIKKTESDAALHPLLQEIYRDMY
Assay: Cellular PPARalpha assay (stably transfected HEK luciferase reporter cell line)
Assay type: cell-based
Settings: 24 h incubation
Procedure: (A) Determination of EC50 Values of PPAR Agonists in the Cellular PPARalpha Assay
The potency of substances which bind to human PPAR[…] and activate in an agonistic manner is analyzed using a stably transfected HEK cell line (HEK=human embryo kidney) which is referred to here as PPARalpha reporter cell line. It contains two genetic elements, a luciferase reporter element (pΔM-GAL4-Luc-Zeo) and a PPARalpha fusion protein (GR-GAL4-humanPPARα-LBD) which mediates expression of the luciferase reporter element depending on a PPARalpha ligand. The stably and constitutively expressed fusion protein GR-GAL4-humanPPARalpha-LBD binds in the cell nucleus of the PPARalpha reporter cell line via the GAL4 protein portion to the GAL4 DNA binding motifs 5′-upstream of the luciferase reporter element which is integrated in the genome of the cell line. There is only little expression of the luciferase reporter gene without addition of a PPARalpha ligand if fatty acid-depleted fetal calf serum (cs-FCS) is used in the assay. PPARα ligands bind and activate the PPARα fusion protein and thereby bring about expression of the luciferase reporter gene. The luciferase which is formed can be detected by means of chemi-luminescence via an appropriate substrate.
The PPARalpha reporter cell line was prepared in 2 stages. Firstly, the luciferase reporter element was constructed and stably transfected into HEK cells. For this purpose, five binding sites of the yeast transcription factor GAL4 (each 5′-CGGAGTACTGTCCTCCGAG-3′) (SEQ ID NO:1) were cloned in 5′-upstream of a 68 bp-long minimal MMTV promoter (Genbank Accession # V01175). The minimal MMTV promoter section contains a CCAAT box and a TATA element in order to enable efficient transcription by RNA polymerase II. The cloning and sequencing of the GAL4-MMTV construct took place in analogy to the description of Sambrook J. et. al. (Molecular cloning, Cold Spring Harbor Laboratory Press, 1989). Then the complete Photinus pyralis gene (Genbank Accession # M15077) was cloned in 3′-downstream of the GAL4-MMTV element. After sequencing, the luceriferase reporter element consisting of five GAL4 binding sites, MMTV promoter and luciferase gene was recloned into a plasmid which confers zeocin resistance in order to obtain the plasmid pΔM-GAL4-Luc-Zeo. This vector was transfected into HEK cells in accordance with the statements in Ausubel, F. M. et al. (Current protocols in molecular biology, Vol. 1-3, John Wiley & Sons, Inc., 1995). […] In a second step, the PPARalpha fusion protein (GR-GAL4-humanPPARalpha-LBD) was introduced into the stable cell clone described. For this purpose, initially the cDNA coding for the N-terminal 76 amino acids of the glucocorticoid receptor (Genbank Accession # P04150) was linked to the cDNA section coding for amino acids 1-147 of the yeast transcription factor GAL4 (Genbank Accession # P04386). The cDNA of the ligand-binding domain of the human PPARalpha receptor (amino acids S167-Y468; Genbank Accession # S74349) was cloned in at the 3′-end of this GR-GAL4 construct. The fusion construct prepared in this way (GR-GAL4-humanPPARalpha-LBD) was recloned into the plasmid pcDNA3 (from Invitrogen) in order to enable constitutive expression therein by the cytomegalovirus promoter. This plasmid was linearized with a restriction endonuclease and stably transfected into the previously described cell clone containing the luciferase reporter element. The finished PPARalpha reporter cell line which contains a luciferase reporter element and constitutively expresses the PPARalpha fusion protein (GR-GAL4-human PPARalpha-LBD) was isolated by selection with zeocin (0.5 mg/ml) and G418 (0.5 mg/ml).
The activity of PPARalpha agonists is determined in a 3-day assay which is described below: […]

| Compound | pEC50 |
| --- | --- |
| CCc1oc(-c2ccc(C(F)(F)F)cc2)nc1COCC1CCCC(C(=O)N[C@H](C(=O)O)C(C)C)C1 (some centres unmarked) [Example 50] | 8.92 |
| CC(C)c1oc(-c2ccc(C(F)(F)F)cc2)nc1COCC1CCCC(C(=O)N[C@H](C(=O)O)C(C)C)C1 (some centres unmarked) [Example 43] | 7.49 |
| Cc1ccc(-c2nc(COC3CCCC(C(=O)NC4(C(=O)O)CCCC4)C3)c(C)o2)cc1 (racemic) [Example 25, 1-{[(1R,3S)/(1S,3R)-3-(5-Methyl-2-p-tolyloxazol-4-ylmethoxy)cyclohexanecarbonyl]amino}cyclopentanecarboxylic acid] | 8.14 |
| Cc1ccc(-c2nc(COC3CCCC(C(=O)N[C@@H](C)C(=O)O)C3)c(C)o2)cc1 (stereo partly drawn) [Example 3, (S)-2-{[(1R,3S)/(1S,3R)-3-(5-Methyl-2-p-tolyloxazol-4-ylmethoxy)cyclohexanecarbonyl]amino}propionic acid] | 7.00 |
| Cc1ccc(-c2nc(COC3CCCC(C(=O)NC(C)(C)C(=O)O)C3)c(C)o2)cc1 (racemic) [Example 5, 2-Methyl-2-{[(1R,3S)/(1S, 3R)-3-(5-methyl-2-p-tolyloxazol-4-ylmethoxy)-cyclohexanecarbonyl]amino}propionic acid] | 7.54 |

Other lines, results leading:

| pEC50 | Compound |
| --- | --- |
| 8.30 | CCc1oc(-c2ccc(C)cc2)nc1CO[C@H]1CCC[C@@H](C(=O)N[C@H](C(=O)O)C(C)C)C1 [Example 21a, (S)-3-methyl-2-{[(1R,3S)-3-(5-ethyl-2-p-tolyloxazol-4-ylmethoxy)cyclohexanecarbonyl]amino}butyric acid] |
| 8.35 | Cc1oc(-c2cccc(C(F)(F)F)c2)nc1COCC1CCCC(C(=O)N[C@H](C(=O)O)C(C)C)C1 (some centres unmarked) [Example 44] |
| 7.82 | Cc1oc(-c2cccc(C(F)(F)F)c2)nc1COC1CCCC(C(=O)N[C@H](C(=O)O)C(C)C)C1 (stereo partly drawn) [Example 11, (S)-3-Methyl-2-({(1R,3S)/(1S,3R)-3-[5-methyl-2-(3-trifluoromethylphenyl)-oxazol-4-ylmethoxy]cyclohexanecarbonyl}amino)butyric acid] |
